Results: patent US20240376119A1, “SPIRO COMPOUND AND USE THEREOF” (CSPC Zhongqi Pharmaceutical Technology (Shijiazhuang) Co., …, priority 2021, published 2024)

How the values were obtained:
SHP2 = SHP2 (Homo sapiens (Human), UniProt Q06124); test: Assay for the inhibitory effect on the SHP2 enzyme (DiFMUP substrate, fluorescence); type: biochemical; conditions: SHP2 activated with SHP-2 activated peptide; DiFMUP 10 μM; read-out: Enzymatic Effect (IC50 on SHP2)
Description: 1× Assay buffer was prepared. A compound to be tested was diluted with DMSO solvent to a stock concentration of 10 mM. The compound to be tested was first diluted to an intermediate concentration of 1000 μM and then further diluted in a 3-fold gradient using DMSO. Therefore, the intermediate gradient dilution concentration of the compound to be tested was: 1000 μM, 3-fold dilution, 11 gradients. 100 nL of each concentration of the compound in the 384-well LDV echo plate was transferred to a new 384-well ELISA plate (assay plate) (corning, Cat #4514) by the Echo550 instrument. The final concentration of the compound to be tested was 10 μM, 3-fold dilution, 11 gradients in duplicate after 10 μL of the reaction reagent was added. The final DMSO concentration was 1%. For both negative and positive control wells, 100 nL DMSO would be transferred.
A mixed liquor of 2× working SHP2 reagent (0.4 nM) and 0.5 μM SHP-2 activated peptide (BPS bioscience #79319-2) was prepared with 1× enzyme buffer. After the above-mixed liquor was incubated at 25° C. for 60 minutes, 5 μL of activated SHP2 kinase solution was transferred with a pipettor to the compound wells and the Max control wells (Corning, #4514) of the plate. Then 5 μL of 1× kinase buffer was transferred to the Min control wells. The plate was centrifuged at 1000 rpm for 30 seconds, sealed, and incubated in a 25° C. constant-temperature incubator for 30 minutes. A substrate solution of DiFMUP (#D6567, Invitrogen™) was prepared with 1× kinase buffer, and its concentration should be 2 times as the final concentration of the assay (DiFMUP final concentration: 10 μM). 5 μL of the prepared substrate solution was transferred with an electric pipettor into each well of the ELISA plate to start the reaction. The plate was centrifuged at 1000 rpm for 30 seconds, sealed, and incubated in a 25° C. constant-temperature incubator for 60 minutes. Read the plate at the excitation/emission wavelength of 358/455 nm after the ELISA plate was placed on the Spark machine.
The RLU values were collected from Spark and the inhibition rate was calculated with the RLU values. Inhibition rate=(maximum value-sample RLU)/(maximum value-minimum value)*100. “Minimum value” was referred to the RLU of the enzyme-free control, and “maximum value” was referred to the RLU of the DMSO control. The data were fit by using the XLFit Excel module (version 5.4.0.8) to obtain IC50 values, and the results are shown in Table 1.

[1] = system: human lung adenocarcinoma NCI-H441 cells; test: In vitro inhibitory effect on the proliferation of NCI-H441 cells (3D CellTiter Glo, 5 days); type: cell-based; conditions: 120 h, 3D cell viability
Description: The human lung adenocarcinoma cell NCI-H441 used in the assay was purchased from ATCC. The complete culture medium required for cell culture was RPMI 1640 Medium (GIBCO Company), which was supplemented with 10% fetal bovine serum (GIBCO Company). Cells were cultured in a 37° C., 5% CO2 incubator. The reagents used in the assay included dimethyl sulfoxide (purchased from Sigma), a 3D Cell Viability assay kit (purchased from Promega), and the control substance TW-45 used in the assay was obtained homemade. The test substance was sealed and stored at 4° C.
Dimethyl sulfoxide was used as the solvent to fully dissolve the test substance and prepare a stock solution with a concentration of 1×10^−2 mol/L. The stock solution was stored at −20° C. A complete culture medium was used as the diluent, and the test substance was diluted to different concentrations in gradient for later use (the final test concentration was 10000, 3333, 1111, 370, 123, 41, 13.7, 4.5, 1.5, and 0.5 nM). Cells were cultured in a 37° C., 5% CO2 incubator for 5 days. Detection was made on the fifth day. 30 μL of reagent (Celltiter Glo Assay Kit-3D) was added to each well and the plate was shaken on a plate oscillator (protected from light) for 30 minutes. The plate was incubated at room temperature (protected from light) for 120 minutes. Chemiluminescence values were recorded with a Multiplate reader. […]

[2] = Mouse pharmacokinetic assay (intragastric administration, plasma HPLC-MS/MS); type: in vivo; conditions: ICR mice
Description: ICR mice were intragastrically administered with the compound at 10 mg/kg or 20 mg/kg. At different time points (0.25 h, 0.5 h, 1 h, 2 h, 4 h, 8 h, 24 h) after administration, the mice blood was collected from the orbit. The collected whole blood was anticoagulated with heparin sodium and centrifuged at 3000 g to obtain mouse plasma samples. Methanol was added to precipitate proteins. The drug concentration in the mouse plasma after administration was determined by the HPLC-MS/MS method. A drug concentration-time curve was plotted and the pharmacokinetic parameters were calculated. The pharmacokinetic behavior in mice after the compound administration was described by means of non-compartment model statistical moment parameters.

hERG channel = hERG channel (Homo sapiens (Human), UniProt Q12809); test: hERG assay, manual whole-cell patch clamp in CHO-K1 cell line stably expressing the hERG channel; type: cell-based
Sequence of hERG channel (Q12809 whole entry): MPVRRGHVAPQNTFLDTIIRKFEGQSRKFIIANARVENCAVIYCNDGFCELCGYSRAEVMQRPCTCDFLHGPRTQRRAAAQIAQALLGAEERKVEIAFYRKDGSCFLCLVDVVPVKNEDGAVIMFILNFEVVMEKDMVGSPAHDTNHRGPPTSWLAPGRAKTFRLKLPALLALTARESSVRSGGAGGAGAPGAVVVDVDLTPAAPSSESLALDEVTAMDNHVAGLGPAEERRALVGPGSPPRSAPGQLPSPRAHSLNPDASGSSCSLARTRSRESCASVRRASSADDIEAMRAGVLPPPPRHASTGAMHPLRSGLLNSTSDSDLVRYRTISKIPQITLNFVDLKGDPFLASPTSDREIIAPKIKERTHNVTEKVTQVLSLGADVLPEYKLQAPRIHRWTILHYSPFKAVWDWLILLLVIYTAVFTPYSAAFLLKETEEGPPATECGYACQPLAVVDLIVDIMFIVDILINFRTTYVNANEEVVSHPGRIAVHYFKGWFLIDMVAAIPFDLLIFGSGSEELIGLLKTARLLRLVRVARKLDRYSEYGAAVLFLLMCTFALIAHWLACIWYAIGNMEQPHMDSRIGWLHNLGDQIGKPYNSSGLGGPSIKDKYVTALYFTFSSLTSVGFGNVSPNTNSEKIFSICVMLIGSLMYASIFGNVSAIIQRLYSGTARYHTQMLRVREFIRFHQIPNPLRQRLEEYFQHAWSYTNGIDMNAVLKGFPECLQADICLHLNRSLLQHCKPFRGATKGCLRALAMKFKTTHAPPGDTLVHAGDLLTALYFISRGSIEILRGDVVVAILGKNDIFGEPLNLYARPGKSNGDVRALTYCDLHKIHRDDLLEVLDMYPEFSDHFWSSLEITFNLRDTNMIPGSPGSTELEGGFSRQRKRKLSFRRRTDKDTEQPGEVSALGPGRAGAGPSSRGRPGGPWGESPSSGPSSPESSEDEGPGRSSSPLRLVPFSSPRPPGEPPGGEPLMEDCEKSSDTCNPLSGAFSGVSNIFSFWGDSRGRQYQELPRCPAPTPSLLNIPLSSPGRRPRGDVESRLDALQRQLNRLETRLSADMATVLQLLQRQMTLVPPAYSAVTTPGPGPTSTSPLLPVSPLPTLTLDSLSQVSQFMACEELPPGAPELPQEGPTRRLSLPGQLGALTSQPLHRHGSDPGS
Description: This assay included the following aspects: • A manual patch clamp technique was used to record the hERG current in the CHO-K1 cell line stably expressing the hERG channel; • The inhibition rate at each concentration was calculated based on the hERG tail current; • Each compound was tested at 5 concentrations to calculate the IC50 value; • Three cells were tested for each concentration; • One positive control drug was set.
HERG currents were recorded using the whole-cell patch-clamp technique. The cell suspension was added to the cell tank and placed on the upright microscope stage. After the cell adherence, the cells were perfused with extracellular fluid at a flow rate of 1-2 mL/min. The glass microelectrode was drawn in two steps by a micropipette puller, and its resistance value in water was 2-5 MΩ. After establishing the whole-cell recording, the clamp potential was maintained at −80 mV. The hERG tail current was elicited by applying a depolarizing voltage to +60 mV upon the voltage stimulation and then repolarizing to −50 mV. All recordings were made after the current stabilization. Extracellular perfusion administration started from a low concentration, and each concentration lasted for 5-10 minutes until the current was stable, and then proceeded to the next concentration.
The half inhibitory concentration (ICSO) of the test compound was derived from the best fit of the Logistic equation.

[3] = mouse, po, intragastric, 10 mg/kg, plasma

Sequence of SHP2 (Q06124 whole entry): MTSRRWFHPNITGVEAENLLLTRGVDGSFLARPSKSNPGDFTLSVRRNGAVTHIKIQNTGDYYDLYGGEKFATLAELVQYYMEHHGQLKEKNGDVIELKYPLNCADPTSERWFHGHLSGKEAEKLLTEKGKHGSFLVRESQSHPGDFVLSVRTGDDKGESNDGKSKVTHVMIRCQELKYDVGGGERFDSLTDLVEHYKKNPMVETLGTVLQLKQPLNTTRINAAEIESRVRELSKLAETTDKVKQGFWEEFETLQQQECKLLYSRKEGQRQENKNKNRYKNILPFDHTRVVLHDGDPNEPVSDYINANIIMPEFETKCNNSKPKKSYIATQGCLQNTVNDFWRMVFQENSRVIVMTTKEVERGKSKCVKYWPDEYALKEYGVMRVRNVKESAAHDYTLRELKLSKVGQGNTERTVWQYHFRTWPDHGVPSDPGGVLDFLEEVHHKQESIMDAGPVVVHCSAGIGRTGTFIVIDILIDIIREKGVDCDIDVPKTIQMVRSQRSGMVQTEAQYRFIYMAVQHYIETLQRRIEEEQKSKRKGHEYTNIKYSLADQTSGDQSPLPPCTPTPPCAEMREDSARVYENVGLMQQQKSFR

## [2H][C@@]1(N)c2ccccc2OC12CCN(c1nc(N)c(Sc3ccnc(N)c3Cl)nc1C(C)=O)CC2 [Compound 56, (R)-1-(5-amino-6-((2-amino-3-chloropyridine-4-yl)sulfanyl)-3-(3-amino-3-deuterium-spiro[benzofuran-2,4′-piperidine]-1′-yl)pyrazine-2-yl)ethanone]
SHP2
  IC50: ≤ 20 nM
[1]
  IC50: ≤ 20 nM
[2]; intragastric administration
  exposure and absorption in mice (in words): relatively high exposure in mice and both were well absorbed in vivo
[2]; [3]
  Cmax: 3570 ng/mL
  Tmax: 30 min
[2]; mouse, po, intragastric, 10 mg/kg, plasma, read-out: AUC0-24 h
  AUC(0-t): 18300 ng·h/mL
hERG channel; CHO-K1 stable cell line, hERG tail current, 5 concentrations
  IC50: > 10000 nM
hERG channel; within the detection concentration range of the assay
  inhibitory effect on the hERG channel (in words): no obvious inhibitory effect on the hERG channel
